The text below walks through data of publication PMC2206373, “Identification of an altered peptide ligand based on the endogenously presented, rheumatoid arthritis-associated, human cartilage glycoprotein-39(263–275) epitope: an MHC anchor variant peptide for immune modulation” (Arthritis Research & Therapy, 2007).

A word on the IC50: it is the concentration that gives 50% inhibition.

Like-named read-outs stand apart in the source and are kept apart here. No end group written: not given here.

The target of test [1] is HLA-DR4(B1*0401) (Homo sapiens, UniProt P01903+P01911, A100K/A169T/F76Y/I96L/K127E/L162R/M171V/N62H/P40V/Q125Y/R42H/S133A/S149N/S66Y/V115G/V209L/W38E). The experiment in a line: HLA-DR4 competition peptide binding assay. The note with it: competition with biotinylated HA307-319 (Y309F) 50 nM, purified HLA-DR4 30 nM, pH 5, 48 h, room temperature. On the procedure:
HLA-DR bound marker peptide was separated from free marker peptide and the amount of bound marker peptide was detected and quantified by enhanced chemoluminescense. Inhibition curves were generated and the IC50 was determined. The concentration of competitor peptide inducing 50% inhibition of marker peptide binding was determined, and expressed as the 50% inhibitory concentration (IC50 in μM).

Test [2] relates to T cell hybridoma 8B12. The experiment in a line: T hybridoma 8B12 IL-2 response. The format is cell-based, mouse. The note with it: for Hybridoma response (SI) 8B12: IL-2 by ELISA after 48 h, peptide 10 μg/ml, SI > 2 positive. On the procedure: The T cell hybridomas, provided by G Sonderstrup (Stanford, CA, USA), were generated as described. In brief, human CD4, HLA-DRA*101/HLA-DRB*0401 triple transgenic (HLA-DR4trg) mice (devoid of I-Aβ) were immunized in the footpad with 50 μg of purified HC gp-39 mixed in incomplete Freund's adjuvant (IFA). Draining lymph nodes were isolated and T-cell hybridomas were generated by polyethylene glycol fusion of primed and in vitro antigen-restimulated lymph node cells with the AKR BW5147 fusion partner. Following fusion, growth-positive hybridoma wells were screened for reactivity to HC gp-39 and a set of 55 peptides (16 amino acids in length) covering the entire HC gp-39 sequence. HLA-DR4(B1*0401)-restricted hybridomas responsive to both the HC gp-39 protein and the immunodominant epitope 263–275 of HC gp-39 (for example, 5G11, 8B12, 14G11 and 20H5) were cloned, subcloned, characterised and selected for further study.
HC gp-39-specific IL-2 production by T hybridomas was measured in wells of round-bottomed microtiter plates. Hybridoma cells (2 to 5 × 10^4) and irradiated APC (0.5 to 1 × 10^5; 12,000 to 16,000 RAD) from the B lymphoblastoid cell line (BLCL) carrying the DRB1*0401 specificity were incubated in 150 μl volumes. Antigen was added in 50 μl volumes to duplicate wells. After 48 h, 100 μl of the culture supernatant was assayed for IL-2 production using a sandwich ELISA with Pharmingen antibodies specific for mouse IL-2. The antigen sensitivity of the hybridomas to both peptide and protein was determined (Figure 2). […] In later assays, an excess of peptide or APL (10 μg/ml), inducing maximal responses in all hybridomas, was tested.

In the case of “RSFTLASSETGVG [Compound 1, HC gp-39(263–275)]”, the IC50 in test [1] (Figure 1, read-out: DRB1*0401 binding IC50) is 0.01 µM; in test [1] (Table 1, geometric mean of two experiments, read-out: HLA-DR binding IC50), 0.12 µM. Moreover, the “T hybridoma (SI) 8B12” value in test [2] (Figure 1, IL-2 production, DRB1*0401 BLCL as APC, duplicate or triplicate, background 16,288 counts, ±30% of WT response = super/partial agonist) was 19 SI. Moreover, the “Peptide concentration for half maximal stimulation (IL-2), 8B12” value in test [2] (Figure 2a dose response, IL-2 ELISA after 48 h) turned out to be 0.21 µg/mL. For the same sequence, the “Hybridoma response (SI) 8B12” value in test [2] (Table 1, DRB1*0401 BLCL as APC, background 7,470 counts, representative of at least three experiments) was found to be 9 SI; in test [2] (Table 2, DRB1*0401 BLCL as APC, background 8,773 counts, SD not above 15%) it was 39 SI.
